Where two headings read alike, the source gives them in different places.
How the values were obtained:
[1] = test system: advanced or metastatic cancer with the KRAS G12C mutation; details: cited from earlier work; for disease control rate: Hong et al. 2020
[2] = test system: extracellular signal-regulated kinase (ERK); details: preclinical studies; Hong et al. 2020; cited from earlier work
KRAS p.G12C tumors = details: mice bearing KRAS p.G12C tumors; Hong et al. 2020; cited from earlier work
KRAS^G12C = KRAS^G12C (Homo sapiens, UniProt P01116, C118A/G12C); experiment: Coupled Nucleotide Exchange Assay; assay type: biochemical; details: GDP-bound KRAS (aa 1-169) G12C/C118A; 2 h compound pre-incubation; SOS-mediated exchange, 30 min; cRAF binding (AlphaLISA)
Outline: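 GDP-bound His-tagged KRAS aa 1-169 (G12C/C118A) pre-incubated 2 h with compound in 25 mM HEPES pH 7.4, 10 mM MgCl2, 0.01% Triton X-100 (±0.1% BSA), then SOS (aa 564-1049) plus GTP added for 30 min. GST-cRAF RBD binding read by AlphaLISA; DMSO-normalized, 4-parameter fit gives IC50.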

MIA PaCa-2 cells = experiment: Cell Viability Assay, MIA PaCa-2; assay type: cell-based; details: Homo sapiens, MIA PaCa-2, 72 h, human pancreatic carcinoma, CellTiter-Glo
A549 cells = experiment: Cell Viability Assay, A549; assay type: cell-based; details: A549; human lung carcinoma; 72 h; CellTiter-Glo

Sequence of KRAS^G12C (P01116 1-169 isoform P01116-2 G12C/C118A): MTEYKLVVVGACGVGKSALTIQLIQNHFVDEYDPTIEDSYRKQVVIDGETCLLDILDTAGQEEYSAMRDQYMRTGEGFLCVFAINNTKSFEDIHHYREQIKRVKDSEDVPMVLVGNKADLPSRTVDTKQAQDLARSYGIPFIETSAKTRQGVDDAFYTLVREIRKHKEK

## C=CC(=O)N1CCN(c2nc(=O)n(-c3c(C)ccnc3C(C)C)c3nc(-c4c(O)cccc4F)c(F)cc23)[C@@H](C)C1 [Sotorasib, sotorasib]
[1]; NSCLC, colorectal, pancreatic, appendiceal, endometrial, esophageal, unknown primary, ampullary, gastric, small bowel, sinonasal, bile duct cancer, melanoma
  response by cancer type: either stable disease (SD) or partial response (PR)
[1]; colorectal cancer, 42 subjects
  disease control rate: 73.8%
[1]; non-small cell lung cancer, 59 subjects
  disease control rate: 88.1%
[1]; other tumor types, 28 subjects
  disease control rate: 75.0%
[2]
  inhibition of phosphorylation of ERK: inhibited nearly all detectable phosphorylation of extracellular signal-regulated kinase (ERK)
KRAS p.G12C tumors
  tumor regression: durable complete tumor regression

## C=CC(=O)N1CCN([C@@H]2CN(c3cc(N4CCC5(CC4)OCCn4ncc(C)c45)nc(C(F)(F)F)n3)[C@@H]2C)CC1 [Compound 3-076, 1-(4-((2R,3R)-2-Methyl-1-(6-(3′-methyl-6′,7′-dihydrospiro[piperidine-4,4′-pyrazolo[5,1-c][1,4]oxazin]-1-yl)-2-(trifluoromethyl)pyrimidin-4-yl)azetidin-3-yl)piperazin-1-yl)prop-2-en-1-one]
KRAS^G12C
  IC50: 72 nM
MIA PaCa-2 cells
  IC50: 214 nM
A549 cells
  IC50: > 5000 nM

## C=CC(=O)N1CCN([C@@H]2CN(c3cc(N4CCC5(CC4)C(=O)C4(COC4)c4nccc(C)c45)nc(C(F)(F)F)n3)[C@@H]2C)CC1 [Compound 3-099, 4′-methyl-1″-(6-((2R,3R)-2-methyl-3-(4-(2-propenoyl)-1-piperazinyl)-1-azetidinyl)-2-(trifluoromethyl)-4-pyrimidinyl)dispiro[oxetane-3,7′-cyclopenta[b]pyridine-5′,4″-piperidin]-6′-one]
KRAS^G12C
  IC50: 41 nM
MIA PaCa-2 cells
  IC50: 165 nM
A549 cells
  IC50: > 5000 nM

## C=CC(=O)N1CCN(C2CN(c3cc(N4CCC5(CC4)c4ccccc4C(=O)N5C)nc(C(F)(F)F)c3C#N)C2)CC1 [Compound 3-004, 4-(3-(4-Acryloylpiperazin-1-yl)azetidin-1-yl)-6-(2-methyl-3-oxospiro[isoindoline-1,4′-piperidin]-1′-yl)-2-(trifluoromethyl)nicotinonitrile]
KRAS^G12C
  IC50: 154 nM
MIA PaCa-2 cells
  IC50: 527 nM
A549 cells
  IC50: > 5000 nM

## C=CC(=O)N1CCN(C2CN(c3cc(N4CCC5(CC4)COc4ccccc45)nc(C(F)(F)F)c3C#N)C2)CC1 [Compound 3-015]
KRAS^G12C
  IC50: 669 nM
MIA PaCa-2 cells
  IC50: 2760 nM
A549 cells
  IC50: > 5000 nM

## C=CC(=O)N1CCN([C@@H]2CN(c3cc(N4CC[C@]5(C[C@H]4C)OCCc4ncsc45)nc(C(F)(F)F)n3)[C@@H]2C)CC1 (single isomer, unassigned) [Compound 3-091-1]
KRAS^G12C
  IC50: 54 nM
MIA PaCa-2 cells
  IC50: 331 nM
A549 cells
  IC50: > 5000 nM

## C=CC(=O)N1CCN(C2CN(c3cc(N4CCC5(CCC(=O)N5C)CC4)nc(C(F)(F)F)c3C#N)C2)CC1 [Compound 3-075, 4-(3-(4-Acryloylpiperazin-1-yl)azetidin-1-yl)-6-(1-methyl-2-oxo-1,8-diazaspiro[4.5]decan-8-yl)-2-(trifluoromethyl)nicotinonitrile]
KRAS^G12C
  IC50: 704 nM
MIA PaCa-2 cells
  IC50: 2800 nM
A549 cells
  IC50: > 5000 nM
